Common to all, as to type: in vivo
Series [1] has as its system Ficus carica leaf explants and shoots. Briefly: Tolerance of non-inoculated leaf explants and of shoots to kanamycin. The protocol:
In order to use kanamycin as a selection agent for transformed cells, non-inoculated leaf explants from in vitro fig cultures of both cultivars Brown Turkey and Smyrna were tested for their tolerance to kanamycin. Wounded leaves were placed on a regeneration medium supplemented with kanamycin at a concentration selected from 0, 10, 25, 50, 75 and 100 mg/l. The minimal concentration for inhibition of adventitious shoot induction for cv. Brown Turkey was 25 mg/l. However with cv. […] Therefore, the concentration of 50 mg/l kanamycin was initially chosen for selection in the subsequent transformation experiments.
Leaf explants of 3-4 weeks old in vitro propagated Ficus carica plants were wounded across the main vein and co-cultivated with the disarmed strain EHA105 harboring the plasmid pME504, comprising the genes GUS-int and npt II. Following co-cultivation with A. tumefaciens, explants were initially placed on regeneration medium supplemented with 50 mg/l kanamycin and 150 mg/l ticarcillin and cultured with their adaxial side up. The leaf explants were exposed for one week to low light intensity and then transferred to normal light. Under the selective conditions of 50 mg/l kanamycin, up to 30% of the explants of Brown Turkey and up to 50% of Smyrna formed green shoots after 4 weeks of culture. […]

In series [2] the test system is Ficus carica shoots. Put plainly: Root formation of regenerated shoots, rooting in solid medium. The settings on record: for Root formation (%) ± SE, Rooting in solid medium: scored after 4 weeks. The protocol:
(§1) Two methods for rooting were examined. According to one method, each shoot was cultivated individually in a tube with root induction (RI) medium composed of half concentration MS medium (½MS) supplemented with 100 mg/l myo-inositol, 1 mg/l thiamine-HCl, 90 mg/l phloroglucinol, 2% sucrose (w/v), 0.25% activated charcoal (AC) and 0.8% agar (pH=5.7). The effect of IBA at different concentrations (0, 1, 2 mg/l) was also tested. Each treatment included 32 individual plants. According to another method, well developed shoots (up to 3-4 cm long with 3-4 expanded leaves) were directly transplanted from the proliferation medium to Rooting Cylinders (3.5 cm high×3.0 cm in diameter) with soil mixture comprising 55% granular polypropylene foam, 30% peat and 15% perlite (Tivonchem Ltd, Israel) moistened/soaked/with liquid RI medium without AC, supplemented with either 0, 1, 2 mg/l IBA. Results were scored (0=shoot with no root; 1=rotting shoot) after 4 weeks and based on 32 shoots (8 Magenta boxes with 4 cylinders) per treatment. Each experiment was repeated three times. Plantlets were cultured in closed boxes for one week in a growth chamber and then transferred for one week to a greenhouse. Then the plantlets were further transferred to a high humidity chamber without closures for additional 2 weeks for further acclimatization by decreasing the relative humidity stepwise.
(§2) Two methods were examined to obtained root induction (Table 1). According to the first approach, each regenerated shoot was placed in a tube containing root induction medium comprising 2 mg/l IBA. Using this method, ca. 80% of the shoots formed roots. However, insufficient percentage of these plants was successfully acclimatized in the greenhouse conditions. According to the second approach, regenerated shoots were cultured directly in rooting cylinders, with or without 1 mg/l IBA. […] These plants had better hardening and growth characteristics and easier further acclimatization in the greenhouse conditions (FIG. 5).

For series [3], the system named is Ficus carica shoots. Briefly: Root formation of regenerated shoots, rooting in liquid medium. The note with it: for Root formation (%) ± SE, Rooting in liquid medium: scored after 4 weeks. The method, then: as §1, §2
For series [4], the system named is Ficus carica leaf explants. Put plainly: Adventitious shoot regeneration from leaf explants. The note with it: control explants with TDZ only (0.5-5 mg/l); cv. Brown Turkey. The protocol: Regeneration experiments were carried out initially with the cultivar Brown Turkey. To examine the effect of culture media on adventitious bud formation, the basal media MS, AP [13] and NN [14]; and various combinations of the auxins IBA and NAA (0.25-2 mg/l), NAA with the cytokinins TDZ (0.5-5 mg/l) and BA (2-5 mg/l) were examined. A control treatment with only TDZ (0.5-5 mg/l) was performed. The regeneration media contained MS basal salt mixture, supplemented with 100 mg/l myo-inositol, 1 mg/l thiamine-HCl, 2-4% sucrose (w/v) and 0.8%, agar (Sigma), at pH 5.7. The effect of the addition of 0.25% activated charcoal (AC) was also examined.
The youngest three expanded leaves isolated from 3-4 weeks old plants were used as explants. Each leaf was wounded forming three scares perpendicular to the central vein and placed on regeneration medium with the abaxial or adaxial surface down. Minimum ten Petri dishes, each containing ten explants were used per treatment. The cultures were kept for 7 days in low light intensity (2.5 μmol/m^2 s) followed by exposure to high light intensity (40 μmol/m^2 s) at 25° C., in a 16 hL/8 hD photoperiod. Leaf explants were examined after 28 and 35 days and the percentage of explant producing shoots (regeneration capacity) and the mean of adventitious shoots formed per regenerating explant (regeneration efficacy) were recorded. […]

Series [5] concerns Ficus carica cv. Brown Turkey plants. Briefly: Herbicide resistance in control and transgenic Brown Turkey tissue culture. An excerpt:
The pME504 plasmid which comprises the bar gene [Streptomyces hygroscopicus bar gene conferring resistance to herbicide bialaphos (X05822) Thompson, C. J., Movva, N. R., Tizard, R., Crameri, R., Davies, J. E., Lauwereys, M. and Botterman, J. Characterization of the herbicide-resistance gene bar from Streptomyces hygroscopicus EMBO J. 6, 2519-2523 (1987)] was used to transform ‘Brown Turkey’ plants. Herbicide resistance in control and transgenic Brawn Turkey cv. tissue culture line 001 was evaluated.

In the case of `NC[C@H]1O[C@H](O[C@H]2[C@H](O)[C@@H](O[C@H]3O[C@H](CO)[C@@H](O)[C@H](N)[C@H]3O)[C@H](N)C[C@@H]2N)[C@H](O)[C@@H](O)[C@@H]1O` [kanamycin], the “effect on new emerging transgenic shoots” value in series [1] (more than 3 subcultures at 100 mg/l kanamycin on proliferation medium) is “inhibition of their growth and development”. Besides, the “minimal concentration for inhibition of adventitious shoot induction” value in series [1] (non-inoculated leaf explants, cv. Brown Turkey) was 25 mg/L.

As to `O=C(O)CCCc1c[nH]c2ccccc12` [IBA, indol-3-butyric acid], the “Root formation (%) ± SE, Rooting in solid medium” value is 100% in the series with Ficus carica shoots [2] (IBA 1 mg/l) and 83 ± 6.27% in the series with Ficus carica shoots [2] (IBA 2 mg/l). In addition, the “shoots that formed roots” value in the series with Ficus carica shoots [2] (each shoot in a tube with root induction medium, 2 mg/l IBA) was “ca. 80%”. The “Root formation (%) ± SE, Rooting in liquid medium” value in the series on Ficus carica shoots [3] (IBA 1 mg/l) stood at 47 ± 5.43%; in the series with Ficus carica shoots [3] (IBA 2 mg/l), 81.3 ± 7.61%. The root formation in the series on Ficus carica shoots [3] (shoots directly in rooting cylinders, with or without 1 mg/l IBA, after 4 weeks) came to 100%.

As for `O=C(Nc1ccccc1)Nc1cnns1` [TDZ, N-phenyl-N′-1,2,3-thiadiazol-5-yl urea], the regeneration frequency result in series [4] is on record as “ca. 2%”.

Take `CP(=O)(O)CC[C@H](N)C(=O)O` [Basta, phosphinothricin]: in series [5] (control Brown Turkey cv., increasing concentrations of PPT (FIG. 11)), the “herbicide effect on non-transformed plants” value was “signs of necrosis and chlorosis on basal leaves following two days and died one week later”. Further, in series [5] (transgenic Brown Turkey cv. tissue culture line 001, 10 ppm Basta), the “herbicide effect on resistant (bar transgenic) lines” value is recorded as “propagated in vitro”.

The values are drawn from patent publication US8148603B2, “Transgenic ficus, method for producing same and use thereof” (The State of Israel, Ministry of Agriculture & Rural …, priority 2004, dated 2012).
